{
  "source": "patent US20090202451A1",
  "about": "“ORAL CARE PRODUCT AND METHODS OF USE AND MANUFACTURE THEREOF” (COLGATE-PALMOLIVE COMPANY, priority 2008, published 2009)",
  "system": "S. sanguis",
  "assay": "Ammonia production by S. sanguis at pH 4.0",
  "type": "cell-based",
  "conditions": "5 millimolar amino acid, 0.1% sucrose, pH 4.0, 37° C., 30 minutes",
  "method": "An overnight culture of S. sanguis was grown at 37° C. in trypticase soy broth (Becton Dickinson, Sparks, Md.). The culture was centrifuged at 5,000 rpm for 5 minutes at 1 milliliter at a time into preweighed tubes in order to accumulate approximately 5 milligrams of wet pellet weight. The pellet was then resuspended into 20 millimolar potassium phosphate buffer (J T Baker, Phillipsburg, N.J.), pH 4.0, to simulate a stressed environment for the bacterial cell where ammonia would be produced for survival. The final concentration was 5 milligram per milliliter. To this final concentration, a 5 millimolar final concentration of L-arginine. L-citrulline, or L-ornithine was added along with a 0.1% final concentration of sucrose (VWR, West Chester, Pa.). This mixture was then incubated at 37° C. in a shaking water bath for 30 minutes before ammonia production was determined.\nIn order to analyze for ammonia, an Ammonia Assay kit was used from Diagnostic Chemicals Limited (Oxford, Conn.). The intended use of this specific kit is for the in vitro quantification of ammonia in plasma, but the procedure was modified in order to determine and quantify the ammonia production in plaque and/or bacteria.",
  "data": [
    {"smiles": "N=C(N)NCCC[C@H](N)C(=O)O", "note": "[L-Arginine, L-arginine]", "values": [
      {"measurement": "Ammonia", "setting": "Trial 3", "value": 2.20, "unit": "ppm"},
      {"measurement": "Ammonia", "setting": "Trial 5", "value": 0.5, "unit": "ppm"}
    ]}
  ]
}
